Assay results taken from patent US7906515B2, “Cancer treatment with topoisomerase-II inhibitor, a bis-dioxypiperazine and radiation” (Topotarget A/S, priority 2004, dated 2011).
“Also recorded” adds a separate entry of the source. Read-outs that look alike come from different tables or passages of the source. Each block holds one compound with its values, some of them ahead of it.

What was measured:
[1] = Histological evaluation of the blood brain barrier and blood tumour barrier by dye staining; type: in vivo; conditions: day 3 after tumour implantation; 5 mice per dye
Procedure: Following anaesthesia by hypnorm/dormicum 25 uL of Evans Blue Dye or 80 uL of Lissamine Green was administered by a tail-vein. After allowing the dye to circulate, animals were perfused transcardially with a 4% formalin solution for 5 minutes. The brain was kept in formalin 4%, and […] thick slices were cut on a vibratome and evaluated visually for staining. A check for positive stain of organs was performed before inclusion of the animal in the evaluation of staining of the brain and tumour. Evans Blue Dye and Lissamine Green were obtained from Sigma-Aldrich (Vallensbaek, DK) and prepared fresh as a 2% solution in isotonic saline.
(§1) Experiments with Evans blue dye, Lissamine Green and 3H-etoposide were done on day 3, with preparations as described for treatment efficacy experiments.

[2] = tested on: Ehrlich Ascites tumour cells; assay: Treatment efficacy: survival of mice with intracerebrally implanted Ehrlich Ascites tumour; type: in vivo, B6D2F1 female mice
Procedure: B6D2F1 female mice from Taconic M&B (Ry, Denmark) were housed in cages of 9 with free access to water and Altromi laboratory diet from Brogaarden (Gentofte, DK). They weighed 19-22 grams at inclusion in protocol. Animals that deteriorated clinically during the experiment were euthanised, and the experiments were approved by the Danish Animal Experimentation Inspectorate.
A total of 15×10^4 Ehrlich Ascites tumour cells in 30 uL saline were implanted into the right temporal hemisphere during short CO2 anaesthesia on day 0 and treated on day 3. Treatment was scheduled as follows: dexrazoxane at t=0, etoposide at t=20 minutes and radiation treatment at t=50 minutes. Before the radiotherapy procedure a light anaesthesia was administered, to achieve compliance.
This way we obtained a simple and reliable method of comparison.
Efficacy of chemoradiotherapy compared to radiotherapy alone was calculated as: […]
Median survival after chemotherapy compared to radiotherapy alone was calculated as:
The absolute numeric difference in median survival time after chemotherapy alone compared to radiotherapy alone was simply calculated as: Difference in survival (days)=MS radiotherapy−MS chemotherapy Eq. 3)
Survival times within the separate experimental treatment groups were compiled, and presented in Kaplan-Meier plots. P-values from Logrank tests comparing survival in experimental groups compared to radiotherapy alone are shown.
The dose-rate was 4.7 Gy/minute.
Dexrazoxane (Zinecard®) was obtained from Pharmacia (Kalamazoo, Mich.) and further diluted in Ringer-lactate. Etoposide (Vepesid™) was obtained as a ready to administer liquid solution from Pharmacia A/S (Copenhagen, DK) and diluted to final concentration in isotonic saline. 3H-etoposide was obtained from Moravek (Calif., USA) and kept at −20° C. All drugs were administered by the intra-peritoneal (ip.) route.

[3] = tested on: topoisomerase-II; conditions: in vitro, cited from earlier work
[4] = tested on: Ehrlich Ascites tumour cells; assay: Clonogenic survival in soft agar after drug with or without concurrent radiotherapy; conditions: for Cell-kill interaction of etoposide with radiotherapy: increasing concentrations of etoposide, 150 minutes exposure
[5] = Brain and tumour uptake using tritiated etoposide; type: in vivo, mice; conditions: ten minutes after ip administration
Procedure: Tritium-labelled etoposide was mixed with either “cold” etoposide 9.0 mg/ml, “cold” etoposide 0.9 mg/ml or isotonic saline, all in a final volume of 200 uL. Ten minutes after the administration mice were anaesthetized by CO2, blood was collected and plasma was separated. […] Tumour and unaffected contra-lateral brain were removed under a surgical microscope, weighed and sonicated. Activity was measured in a liquid scintillation counter from Packard (US), and counts/gram in brain and tumour was compared to concurrent plasma values.
as §1

[6] = Etoposide area under the curve after intra-peritoneal treatment; type: in vivo; conditions: own experiments, data unpublished
Procedure: Following intra-peritoneal treatment with etoposide, approximately 95% of the total etoposide area under the curve is covered within 150 minutes after administration (own experiments, data unpublished). […] Ehrlich Ascites tumour cells were incubated in etoposide or dexrazoxane for 30 minutes before irradiation, and then allowed further 120 minutes post-irradiation drug incubation, resulting in a total duration of exposure of 150 minutes.

[7] = tested on: brain metastasis from SCLC; conditions: cited from earlier work
[8] = tested on: topoisomerase II; conditions: cited from earlier work
[9] = concurrent teniposide and WBRT, phase III trial

Colouration of brain or tumour tissue after tail-vein administration [1]: no colouration of brain or tumour tissue
SMILES: Cc1cc(-c2ccc(/N=N/c3ccc4c(S(=O)(=O)[O-])cc(S(=O)(=O)[O-])c(N)c4c3O)c(C)c2)ccc1/N=N/c1ccc2c(S(=O)(=O)[O-])cc(S(=O)(=O)[O-])c(N)c2c1O.[Na+].[Na+].[Na+].[Na+] [Evans blue dye]

Colouration of brain or tumour tissue after tail-vein administration [1]: no colouration of brain or tumour tissue
SMILES: CN(C)c1ccc(C(=C2C=CC(=[N+](C)C)C=C2)c2c(O)c(S(=O)(=O)[O-])cc3cc(S(=O)(=O)[O-])ccc23)cc1.[Na+] [Lissamine Green]

SMILES: C[C@@H](CN1CC(=O)NC(=O)C1)N1CC(=O)NC(=O)C1 [dexrazoxane, (S)-(+)-1,2-Bis(3,5-dioxopiperazin-1-yl)propane]
Survival after drug alone ([2]; dexrazoxane 125 mg/kg alone): increased survival a little
Effect on survival in combination with radiotherapy ([2]; dexrazoxane 125 mg/kg and concurrent 10 Gy): neither dexrazoxane 125 mg/kg (FIG. 1D) nor solvent affected survival in combination with radiotherapy
Difference in survival, days lost from ineffective treatment (Eq. 3) ([2]; dexrazoxane 125 mg/kg ip alone, compared to radiotherapy): 5 days
Effect on toxicity from etoposide in clonogenic assay [3]: antagonises toxicity from etoposide
Formation of DNA strand breaks induced by topoisomerase-II poisons [3]: inhibits the formation of DNA strand breaks
Toxicity of drug alone in clonogenic survival ([4]; dexrazoxane alone): non-toxic
Radio-enhancing effect in clonogenic survival ([4]; fixed doses of dexrazoxane 25 μM or 125 μM, increasing radiotherapy doses): no radio-enhancing effect; also recorded: no effect at all

SMILES: COc1cc([C@@H]2c3cc4c(cc3[C@@H](O[C@@H]3O[C@@H]5CO[C@@H](C)O[C@H]5[C@H](O)[C@H]3O)[C@H]3COC(=O)[C@H]23)OCO4)cc(OC)c1O [etoposide, 9-[[4,6-O-(1R)-ethylidene-β-D-glucopyranosyl]oxy]-5,8,8a,9-tetrahydro-5-(4-hydroxy-3,5-dimethoxyphenyl)-(5R,5aR,8aR,9S)-furo[3′,4′:6,7]naphtho[2,3-d]-1,3-dioxol-6(5aH)-one]
Survival after drug alone ([2]; etoposide 34 mg/kg alone): increased survival
Effect on survival from radiotherapy ([2]; etoposide 34 mg/kg and concurrent 10 Gy): did not enhance survival from radiotherapy
Influence of dose, vehicle or dexrazoxane pre-treatment on uptake in tumour [5]: no influence on uptake in tumour
Tumour drug uptake compared to brain [5]: higher than in brain, but statistically insignificant, except after treatment with the low dose of etoposide
Brain/plasma ratio of 3H-etoposide ([5]; etoposide dose-escalation or dexrazoxane 125 mg/kg pre-treatment): Neither etoposide dose-escalation nor pre-treatment with dexrazoxane altered the brain/plasma ratio
Share of total etoposide area under the curve covered within 150 minutes after administration [6]: approximately 95%
Cell-kill of etoposide in combination with radiotherapy ([3]; literature): synergistic cell-kill
Interaction by combination index (Chou and Talalay) ([4]; increasing concentrations of etoposide with radiotherapy): synergism
Cell-kill interaction of etoposide with radiotherapy ([4]; 1.25 Gy): did not result in an increased cell-kill
Cell-kill interaction of etoposide with radiotherapy ([4]; 7.5 Gy): synergistic cell-kill; also recorded: supra-additive cell-kill
Interaction by combination index (Chou and Talalay) ([4]; lowest concentrations of etoposide with radiotherapy): antagonistic

SMILES: COc1cc([C@@H]2c3cc4c(cc3[C@@H](O[C@@H]3O[C@@H]5CO[C@@H](c6cccs6)O[C@H]5[C@H](O)[C@H]3O)[C@H]3COC(=O)[C@H]23)OCO4)cc(OC)c1O [teniposide]
Time to cerebral progression ([7]; concurrent teniposide and WBRT versus teniposide alone): significantly increased
Median survival [7, 9]: 3.5 months
Response rate [7, 9]: 57%
Response rate ([7]; teniposide 150 mg/m^2 day 1, 3 and 5, alone, phase II): 33%
Median survival ([7]; teniposide alone, phase III trial): 3.2 months
Potency relative to VP-16 [8]: about 10 fold
